Earlier results as cited in patent US7385060B2, “Method for producing salts of tolperisone” (Sanochemia Pharmazeutika AG, priority 2002, dated 2008).

How the values were obtained:
RAT = details: oral
HMN = details: inhalation, human, 30 m

In the case of `C=O` [formaldehyde], the “ORL-RAT LD50” value (RAT) is given as 100 mg/kg and the “IHL-TCLO HMN” value (HMN) is given as 17 mg/m^3/30 m.
